{"source": "patent US20230364095A1", "about": "“TOPICAL TREATMENT OF VITILIGO” (INCYTE CORPORATION, priority 2020, published 2023)", "origin": "cited, not measured here", "tested_on": "patients with vitiligo", "note": "Where two headings read alike, the source gives them in different places."}
{"molecule": "N#CC[C@H](C1CCCC1)n1cc(-c2ncnc3[nH]ccc23)cn1", "note": "[ruxolitinib, (R)-3-(4-(7H-pyrrolo[2,3-d]pyrimidin-4-yl)-1H-pyrazol-1-yl)-3-cyclopentylpropanenitrile]", "values": [{"measurement": "Clinical outcome (case report)", "setting": "oral 20 mg BID for 20 weeks, patient with alopecia areata and vitiligo", "value": "hair regrowth as well as repigmentation of areas affected with vitiligo"}]}
{"molecule": "C[C@@H]1CCN(C(=O)CC#N)C[C@@H]1N(C)c1ncnc2[nH]ccc12", "note": "[tofacitinib]", "values": [{"measurement": "Clinical outcome (case report)", "setting": "oral 5 mg QD, after 5 months, widespread and progressive vitiligo", "value": "near complete repigmentation"}]}
